{
  "source": "patent US20050119352A1",
  "about": "“Method of treating cancers” (priority 2002, published 2005)",
  "key": {"[1]": {"system": "transplanted human mammary carcinoma", "conditions": "cited from earlier work"}, "[2]": {"system": "ARH-77 cells, a human multiple myeloma cell line", "assay": "MTT cell survival assay in ARH-77 multiple myeloma cells", "method": "β-lapachone was dissolved at 20 mM concentration in dimethyl sulfoxide (DMSO), aliquoted, and stored at −20° C. for cell culture use. Imatinib was dissolved at 100 mM concentration in dimethyl sulfoxide (DMSO).\nEach well was treated with β-lapachone and/or imatinib. Each condition was run in triplicate. […] The plates were read using a plate reader at 570 nm."}, "[3]": {"system": "K562 cells (human chronic myelogenous leukemia cell line), imatinib-sensitive", "assay": "MTT cell survival assay in K562 CML cells, imatinib-sensitive line", "method": "(§1) K562 cells (a human chronic myelogenous leukemia (CML) cell line), were suspended in RPMI 1640 Medium (Life Technologies Inc.), supplemented with 10% FCS, 2 mM L-glutamine in 96-well plates (2×10^4 cells per well). Both an imatinib-sensitive and an imatinib-resistant cell line were used. Each well was treated with β-lapachone and/or imatinib. Each condition was run in triplicate. After incubation for 48 hours, cell survival was assayed using MTT to determine cell survival. The plates were read using a plate reader at 570 nm."}, "[4]": {"system": "K562 cells (human chronic myelogenous leukemia cell line), imatinib-resistant", "assay": "MTT cell survival assay in K562 CML cells, imatinib-resistant line", "assay_type": "cell-based", "conditions": "48 hours; for % Viability: Imatinib 0 μM", "method": "as §1"}, "[5]": {"conditions": "cited from earlier work"}},
  "note": "Read-outs that look alike come from different tables or passages of the source.",
  "data": [
    {"smiles": "O=CN/C=C/c1cc(O)ccc1O", "note": "[erbstatin]", "values": [
      {"measurement": "tumor growth", "setting": "[1]; another carcinoma which does not express the EGF receptor", "value": "without effect"},
      {"measurement": "tumor growth", "setting": "[1]; carcinoma which expresses epidermal growth factor receptor tyrosine kinase, athymic nude mice", "value": "selectively attenuates the growth"}
    ]},
    {"smiles": "Cc1ccc(NC(=O)c2ccc(CN3CCN(C)CC3)cc2)cc1Nc1nccc(-c2cccnc2)n1", "note": "[imatinib, Imatinib]", "values": [
      {"measurement": "% Viability", "setting": "[2]; STI571 1 μM, Co-501 0 μM, 24 hours", "value": 66.3, "unit": "%"},
      {"measurement": "% Viability", "setting": "[2]; STI571 2 μM, Co-501 0 μM, 24 hours", "value": 80.0, "unit": "%"},
      {"measurement": "% Viability", "setting": "[2]; STI571 5 μM, Co-501 0 μM, 24 hours", "value": 85.7, "unit": "%"},
      {"measurement": "% Viability", "setting": "[2]; STI571 10 μM, Co-501 0 μM, 24 hours", "value": 91, "unit": "%"},
      {"measurement": "% Viability", "setting": "[2]; STI571 20 μM, Co-501 0 μM, 24 hours", "value": 47, "unit": "%"},
      {"measurement": "% Viability", "setting": "[2]; STI571 20 μM, Co-501 0 μM, 24 hours, listed as STI571", "value": 46.7, "unit": "%"},
      {"measurement": "% Viability", "setting": "[2]; STI571 50 μM, Co-501 0 μM, 24 hours", "value": 10.0, "unit": "%"},
      {"measurement": "viability at 0.5 µM", "setting": "[3]; Homo sapiens, K562, 48 h", "value": 57.2, "unit": "%"},
      {"measurement": "viability at 1 µM", "setting": "[3]; Homo sapiens, K562, 48 h", "value": 36.6, "unit": "%"},
      {"measurement": "viability at 5 µM", "setting": "[3]; Homo sapiens, K562, 48 h", "value": 20.9, "unit": "%"},
      {"measurement": "viability at 10 µM", "setting": "[3]; Homo sapiens, K562, 48 h", "value": 13.9, "unit": "%"},
      {"measurement": "viability at 20 µM", "setting": "[3]; Homo sapiens, K562, 48 h", "value": 0.9, "unit": "%"},
      {"measurement": "viability at 1 µM", "setting": "[4]; Homo sapiens, K562, Imatinib 1 μM, B-lapachon 0 μM", "value": 94.7, "unit": "%"},
      {"measurement": "viability at 5 µM", "setting": "[4]; Homo sapiens, K562, Imatinib 5 μM, B-lapachon 0 μM", "value": 57.3, "unit": "%"},
      {"measurement": "viability at 10 µM", "setting": "[4]; Homo sapiens, K562, Imatinib 10 μM, B-lapachon 0 μM", "value": 22.5, "unit": "%"},
      {"measurement": "viability at 20 µM", "setting": "[4]; Homo sapiens, K562, Imatinib 20 μM, B-lapachon 0 μM", "value": 11.5, "unit": "%"},
      {"measurement": "viability at 40 µM", "setting": "[4]; Homo sapiens, K562, Imatinib 40 μM, B-lapachon 0 μM", "value": 4.9, "unit": "%"},
      {"measurement": "sensitivity to imatinib alone, compared with imatinib-sensitive line", "setting": "[4]; imatinib alone", "value": "less sensitivity"}
    ]},
    {"smiles": "CC1(C)CCC2=C(O1)c1ccccc1C(=O)C2=O", "note": "[β-lapachone, 3,4-dihydro-2,2-dimethyl-2H-naphtho[1,2-b]pyran-5,6-dione]", "values": [
      {"measurement": "viability at 1 µM", "setting": "[2]; Homo sapiens, ARH-77, 24 h, STI571 0 μM, Co-501 1 μM, 24 hours", "value": 91, "unit": "%"},
      {"measurement": "viability at 2 µM", "setting": "[2]; Homo sapiens, ARH-77, 24 h, STI571 0 μM, Co-501 2 μM, 24 hours", "value": 34, "unit": "%"},
      {"measurement": "viability at 4 µM", "setting": "[2]; Homo sapiens, ARH-77, 24 h, STI571 0 μM, Co-501 4 μM, 24 hours", "value": 40, "unit": "%"},
      {"measurement": "% Viability", "setting": "[2]; STI571 0 μM, Co-501 2 μM, 24 hours", "value": 34.3, "unit": "%"},
      {"measurement": "% Viability", "setting": "[2]; human, 24 h, 1 μM", "value": 91.4, "unit": "%"},
      {"measurement": "% Viability", "setting": "[3]; Imatinib 0 μM, B-lapachone 1 μM, 48 hours", "value": 36.2, "unit": "%"},
      {"measurement": "% Viability", "setting": "[3]; Imatinib 0 μM, B-lapachone 2 μM, 48 hours", "value": 11.9, "unit": "%"},
      {"measurement": "% Viability", "setting": "[3]; Imatinib 0 μM, B-lapachone 4 μM, 48 hours", "value": 1.0, "unit": "%"},
      {"measurement": "% Viability", "setting": "[3]; human, 48 h, 0.5 μM", "value": 58.3, "unit": "%"},
      {"measurement": "water solubility", "setting": "[5]", "value": "water insolubility"},
      {"measurement": "% Viability", "setting": "[4]; B-lapachon 0.5 μM", "value": 80.5, "unit": "%"},
      {"measurement": "% Viability", "setting": "[4]; B-lapachon 1 μM", "value": 79, "unit": "%"},
      {"measurement": "% Viability", "setting": "[4]; B-lapachon 2 μM", "value": 45, "unit": "%"},
      {"measurement": "% Viability", "setting": "[4]; B-lapachon 4 μM", "value": 0.56, "unit": "%"}
    ]}
  ]
}
